{"source": "patent US20260108641A1", "about": "“PHYTIC ACID-BASED TERNARY COMPLEX BIOMIMETIC NANOMATERIAL, AND PREPARATION METHOD AND USE THEREOF” (THE SECOND HOSPITAL OF TIAN JIN MEDICAL UNIVERSITY, priority 2023, published 2026)", "key": {"[1]": {"tested_on": "PC-3 tumor-bearing mouse model", "experiment": "In vivo tumor inhibitory effect", "parameters": "species or system mice", "conditions": "day 14 after tail vein injection, controls PBS, CDDP, PA-Mn-BSA", "quoted_text": "A PC-3 tumor-bearing mouse model was constructed. […] Tumor size was measured every other day for 14 consecutive days after injection to observe the tumor growth inhibitory effect in different groups. Tumors were dissected and collected from the mice on day 14 for size observation."}, "[2]": {"experiment": "Safety evaluation, blood biochemical analysis", "format": "in vivo, Kunming mice", "conditions": "24 hours after tail vein injection, versus PBS group", "procedure": "Normal Kunming mice were selected, and PBS, CDDP, PA-Mn-BSA and PA-Mn/Pt-BSA were separately injected via the tail vein of the mice. Blood biochemical analysis was performed 24 hours later."}}, "data": [{"smiles": "[NH2][Pt]([NH2])([Cl])[Cl]", "note": "[CDDP, cisplatin]", "values": [{"measurement": "tumor volume of dissected tumors", "setting": "[1]", "result": "smaller tumor volume than the PBS group"}, {"measurement": "level of alanine transaminase (ALT)", "setting": "[2]", "result": "significantly higher"}, {"measurement": "level of aspartate transaminase (AST)", "setting": "[2]", "result": "significantly higher"}, {"measurement": "level of blood urea nitrogen (BUN)", "setting": "[2]", "result": "significantly higher"}, {"measurement": "level of creatinine (CRE)", "setting": "[2]", "result": "significantly higher"}]}]}
